PubChem BioAssay (NCI)
“And” between values parts separate entries of the source, which are not always exact repeats. Equal values may be shown once.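 Dose response: 5 concentrations. Exposure: 48 h. Format: 96-well plates. Endpoint: linear interpolation; highest concentration if not reached. GI50: concentration for 50% inhibition of growth. TGI marks complete inhibition of growth.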 Where a SMILES comes first, the peptide text is derived from it. The star is where a group is joined. Cbz = O=C(OCc1ccccc1)*

Legend:
Assay in all cases: DTP human tumour cell line panel, 48 h
[1] = tested on: CCRF-CEM leukemia
[2] = tested on: HCT-15 colon
[3] = tested on: NCI/ADR-RES ovarian
[4] = tested on: DU-145 prostate
[5] = tested on: OVCAR-3 ovarian
[6] = tested on: SK-MEL-28 melanoma
[7] = tested on: NCI-H460 lung
[8] = tested on: 786-0 renal
[9] = tested on: HCC-2998 colon
[10] = tested on: MOLT-4 leukemia
[11] = tested on: A549 NSCLC

Compound	TGI [1] [µM]	TGI [2] [µM]	TGI [3]	TGI [4]	TGI [5]	TGI [6]	TGI [7]	TGI [8] [µM]	TGI [9] [µM]	TGI [10] [µM]	TGI [11]	GI50 [1] [µM]	GI50 [3] [µM]	GI50 [4] [µM]	GI50 [5] [µM]	GI50 [6] [µM]	GI50 [7] [µM]	GI50 [9] [µM]	GI50 [10] [µM]
COc1cc2c(cc1O)NC(=O)[C@@H]1CCCN1C2=O	> 100	> 100	> 100 µM	> 100 µM	> 100 µM	> 100 µM	> 100 µM	> 100	> 100	> 100	> 100 µM								
COc1ccc2nc(-c3ccccc3)c(=O)[nH]c2c1	> 100	> 100	> 100 µM	> 100 µM	> 100 µM	> 100 µM	> 100 µM	> 100	> 100	> 100	> 100 µM								
C=CC1(CC[C@]2(c3ccc(OC)c(OC)c3)C=[N+]([O-])O[C@H](O[C@@H]3CCCC[C@H]3C(C)(C)c3ccccc3)C2)OCC(C)(C)CO1	23.8	> 48.5	31 µM	49.9 µM	25.1 µM	53.8 µM	> 59.8 µM	> 45.8	31.3	21.6	> 54.8 µM								
Oc1c(Br)ccc2cccnc12	3.98	> 100	6.38 µM	> 68.8 µM	> 23.3 µM	> 100 µM	23.2 µM	> 43.2	> 100	> 26.9	> 100 µM								
O=C1c2c(Br)sc(Br)c2C(=O)C1(O)O	85	73.4	> 100 µM	> 100 µM	35.9 µM	> 100 µM	> 100 µM	> 100	> 100	93.5	> 100 µM								
CC(=O)SC(C[N+](=O)[O-])c1ccc2c(c1)OCO2 (stereo unspecified)	> 46.4	11.1	35.5 µM	33.7 µM	16.6 µM	9.78 µM	26.2 µM	8.95	3.47	19.9	24.1 µM								
COc1cc(Nc2nc3cc(C(F)(F)F)ccc3nc2C(=O)O)cc(OC)c1OC	90.8	> 100	> 100 µM	> 100 µM	> 100 µM	> 100 µM	> 100 µM	> 100	> 100	> 100	> 100 µM								
CCOc1cc(NC(C)=O)ccc1C(=O)NNS(=O)(=O)c1ccc(NC(C)=O)cc1	> 100	> 100	> 100 µM	> 100 µM	> 100 µM	> 100 µM	> 100 µM	> 100	> 100	> 100	> 100 µM								
NCCCN(CCCN)CCc1cn(C(=O)c2ccccc2)cn1	14.8	27.1	53.9 µM	11.3 µM	7.75 µM	33.2 µM	39 µM	25.6	19	17.9	26.7 µM								
CC1(C)O[C@H]2OC(CO)C(N=[N+]=[N-])[C@H]2O1 (stereo partly specified)	> 100	> 100	> 100 µM	> 100 µM	> 100 µM	> 100 µM	> 100 µM	> 100	> 100	> 100	> 100 µM								
CCOC(=O)CCC(NC(=O)C(Cc1ccccc1)NC(=O)OCc1ccccc1)C(=O)OCC (stereo not drawn) (Cbz-Phe-Glu(OEt)-OEt; configuration not given here)	> 64.7	41.6	42 µM	22.3 µM	28.6 µM	33.2 µM	38.5 µM	32	32.1	> 71.3	36.9 µM								
O=C1OCC2OC(=O)c3cc(O)c(O)c(O)c3-c3c(O)c(O)c(O)c4c3C(=O)OC(C2OC(=O)c2cc(O)c(O)c(O)c2-c2c1cc(O)c(O)c2O)C1OC(=O)C2C4=C(O)C(=O)C23Oc2cc(O)c4c(c2[C@H]13)O[C@H](c1ccc(O)c(O)c1)[C@@H](O)C4 (stereo partly specified)	> 100	44.7	73.3 µM	> 100 µM	83.4 µM	> 100 µM	> 100 µM	56.7	> 100	54	> 100 µM								
CC(=O)OCC1OC(n2c(C)c(N=Nc3ccc(Cl)cc3)c(C)c(C#N)c2=S)C(OC(C)=O)C(OC(C)=O)C1OC(C)=O (stereo unspecified)	> 100	> 100	> 100 µM	> 100 µM	> 100 µM	> 100 µM	> 100 µM	42.4	> 100	> 100	> 100 µM								
Cn1nnnc1SC(F)(F)c1nc2ccccc2o1	> 100	> 100	> 100 µM	> 100 µM	> 100 µM	> 100 µM	> 100 µM	> 100	> 100	> 100	> 100 µM								
CCCCCCCCCCCC(=O)OC[C@@H](C[As](=O)(O)O)OC(=O)CCCCCCCCCCC	> 94.4	24.1	36.6 µM	36.6 µM	16.5 µM	11.3 µM	11.1 µM	26.5	20.1	> 77.2	31.3 µM								
COc1ccc(C2c3cc4c(cc3OC(N3CCOCC3)C2C)OCO4)cc1 (stereo unspecified)	> 78.2	> 100	> 91.2 µM	> 100 µM	> 86.1 µM	> 88 µM	> 100 µM	> 100	67	> 31.6	> 90.6 µM								
C/C=C\C(CC(=O)NCC(=O)c1c[nH]c2ccccc12)CC(=O)OC (stereo unspecified)	96.5	> 100	> 100 µM	> 100 µM	> 100 µM	> 100 µM	> 100 µM	> 100	> 100	> 100	> 100 µM								
CC(=O)c1ccc2c(c1)C(=O)c1sc(C(C)=O)cc1C2=O		2.18	2.56 µM and 1.93 µM	2.12 µM and 3 µM	2.36 µM and 1.85 µM	14.2 µM and 3.61 µM	7.31 µM and 11 µM	50			9.41 µM and 7.41 µM	0.182	0.326	1.54	0.329	1.85	0.362	1.71	0.0664

Compound	TGI [1] [µM]	TGI [2] [µM]	TGI [3]	TGI [4]	TGI [5]	TGI [6]	TGI [7]	TGI [8] [µM]	TGI [9] [µM]	TGI [10] [µM]	TGI [11]	GI50 [1] [µM]	GI50 [3] [µM]	GI50 [4] [µM]	GI50 [5] [µM]	GI50 [6] [µM]	GI50 [7] [µM]	GI50 [9] [µM]	GI50 [10] [µM]
O=[N+]([O-])c1c(F)c(F)c2c(c1F)N(CCCCCl)c1ccccc1S2	6.35	3.31	37.5 µM	26.1 µM	19.5 µM	10.9 µM	9.91 µM	23.8	8.48	> 21.6	31.8 µM								
Cc1ccnc2c1C(=O)C1=C(OC(C)(C)CC1O)C2=O (stereo unspecified)	44.5	9.97	8.93 µM	17.2 µM	7.18 µM	5.16 µM	8.97 µM	16.4	15.3	26.9	21.6 µM								
CCOP(=O)(OCC)/C(C#N)=C/c1ccc(-c2cc(C(F)(F)F)cc(C(F)(F)F)c2)o1	34.3	20.7	23.6 µM	29.1 µM	21.6 µM	33 µM	19.1 µM	25.5	22.2	21.8	31.3 µM								
CCOC(=O)c1c(OCC)[nH]c(=O)c(C(c2cccs2)c2c(O)c(C(=O)OCC)c(OCC)[nH]c2=O)c1O	> 100	37.5	> 100 µM	26.9 µM	30.4 µM	43.6 µM	39.8 µM	59.3	35	22.5	32.8 µM								
CC(=O)OC(CCC1(C)OC1COc1ccc(CCNC(=O)C=C(C)C)cc1)C(C)(C)OC(C)=O (stereo unspecified)	> 92.7	> 100	47.9 µM	> 100 µM	> 100 µM	> 100 µM	> 100 µM	> 100	> 100	39.1	> 100 µM								
CN1CCN(/C(N)=C(\C#N)C(=O)Nc2ccc(Cl)cc2)CC1	> 100	> 100	> 100 µM	> 100 µM	> 100 µM	> 100 µM	> 100 µM	> 100	> 100	> 100	> 100 µM								
O=P1(Cc2ccccc2)N(Cc2ccccc2)[C@@H]2CCCC[C@H]2N1Cc1ccccc1	32.3	23.8	23 µM	27.1 µM	20.9 µM	33.2 µM	25.8 µM	27.2	22	8.44	19.7 µM								
CN1CCCOC(c2ccc(Cl)cc2)O1 (stereo unspecified)	> 100	> 100	> 100 µM	> 100 µM	> 100 µM	> 100 µM	> 100 µM	> 100	> 100	> 100	> 100 µM								
Cc1c2ccc3ccccc3c2c[n+]2ccccc12	37.2	> 100	> 100 µM	> 76 µM	35.4 µM	28.7 µM	40.2 µM	25.8	17.7	48.7	> 100 µM								
O=C1/C(=C\c2cccc(Oc3ccccc3)c2)S(=O)(=O)C(c2ccccc2)N1c1cccc(Cl)c1 (stereo unspecified)	83.9	> 100	> 100 µM	> 100 µM	> 100 µM	> 100 µM	> 100 µM	> 100	> 100	> 100	> 100 µM								
CS(=O)(=O)N1CC(CCl)c2ccc(O)cc21 (stereo unspecified)	23.8	18.6	17.4 µM	11.3 µM	9.3 µM	14.2 µM	11.3 µM	11.6	4.2	> 100	11.1 µM								
NCCCNCCCCN1CCOC1=O	> 100	> 100	> 100 µM	> 100 µM	> 100 µM	> 100 µM	> 100 µM	> 100	> 100	> 100	> 100 µM								
N#Cc1cc2c(cc1Cl)Sc1nnc(Nc3ccccc3)n1S2(=O)=O	> 24	5.61	3.43 µM	5.2 µM	3.82 µM	5.4 µM	9.22 µM	8.49	3	4.06	16 µM								
Cc1ccc2c(c1)CC1(Cc3cccc(C)c3C1=O)C2=O (stereo unspecified)	> 100	> 100	> 100 µM	> 100 µM	> 100 µM	> 100 µM	> 100 µM	> 100	> 100	> 100	> 100 µM								
O=C(Cn1c2ccc(Br)cc2c2nc3ccccc3nc21)NNC(=S)NC1CCCCC1	18.8	25.4	34.5 µM	29.4 µM	22.8 µM	31.6 µM	24.9 µM	28.9	34.6	22.6	22.4 µM								
O=c1[nH]nc(Cc2ccc(Cl)cc2)n1/N=C/c1cccs1	> 100	> 100	> 100 µM	> 100 µM	> 100 µM	> 100 µM	> 100 µM	> 100	> 100	> 100	> 100 µM								
COCCn1cnc2c(Cl)nc(Nc3ccccc3)nc21	46.9	69.1	> 100 µM	> 100 µM	34.1 µM	> 100 µM	> 100 µM	> 100	40	60.5	> 100 µM								
CCOC(=O)C(Cc1ccc(O)cc1)Nc1nc(=O)c2c(=O)oc(Cl)cc2o1 (stereo unspecified)	23.4	37.3	> 69.7 µM	51.1 µM	20 µM	21 µM	> 57.2 µM	22.3	17.6	10.1	34.7 µM								
